# In patent US8785463B2, “GPR 119 agonists” (Cadila Healthcare Limited, priority 2010, dated 2014):
# How the values were obtained:
# C57/BL6 mice = test: Oral Glucose Tolerance Tests (OGTT) in C57/BL6 mice; type: in vivo; settings: single oral dose, glucose load 3 gm/kg, serum glucose AUC, head 50 mg/kg
# Protocol: In Vivo Efficacy Studies: Oral Glucose Tolerance Tests (OGTT) in C57/13L6 mice:
# C57/BL6 mice of 6-8 week age are used for this experiment. Animals are grouped based on non-fasting serum glucose levels and kept on fasting for overnight (day before OGTT). On the experiment day, […], 30 min post dosing animals are bled for basal glucose level estimation and at the same time glucose load (3 gm/kg) will be administered per orally. Blood is collected at time points corresponding to 20, 40, 60 and 120 min after glucose load administration. Serum is separated for determination of glucose levels and change in area under curve for glucose is calculated and provided in Table 3 as % to reduction in AUC.
# human GPR 119 receptor = molecular target: T1, human GPR 119 receptor (Homo sapiens, UniProt Q8TDV5); test: cAMP assay in stable cell line expressing recombinant human GPR 119 receptor; type: cell-based; settings: for Fold increase in cyclic AMP with respective to DMSO: DMSO = 1
# T1 construct: expressed in transfected cells
# T1 sequence (Q8TDV5 1-335): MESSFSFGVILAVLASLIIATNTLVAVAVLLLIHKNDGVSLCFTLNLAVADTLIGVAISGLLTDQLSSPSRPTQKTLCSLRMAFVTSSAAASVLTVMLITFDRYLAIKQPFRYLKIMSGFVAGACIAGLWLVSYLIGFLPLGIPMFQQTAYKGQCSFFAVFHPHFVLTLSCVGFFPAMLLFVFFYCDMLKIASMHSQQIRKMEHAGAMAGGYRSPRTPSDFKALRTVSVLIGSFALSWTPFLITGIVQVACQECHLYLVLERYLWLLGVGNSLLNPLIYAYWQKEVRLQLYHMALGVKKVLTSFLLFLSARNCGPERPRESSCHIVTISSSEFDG
# Excerpt: A stable cell line expressing recombinant human GPR 119 receptor was established and used to investigate the efficacy of the compounds of the invention based on the intracellular levels of cyclic AMP (cAMP) using commercially available cAMP kits.
# db/db mice = test: Oral Glucose Tolerance Tests (OGTT) in db/db mice; type: in vivo; settings: single oral dose 50 mg/kg, glucose load 2 g/kg, AUC glucose excursion vs vehicle control
# Protocol: Oral Glucose Tolerance Tests (OGTT) in db/db mice:
# db/db mice of 5-7 week age are used for this experiment. Animals were kept on fasting and are grouped based on fasting serum glucose levels and after grouping OGTT was performed. Each animal receive a single dose of vehicle/test compounds (50 mg/kg) administered orally, 30 min post dosing animals are bled for basal glucose level estimation and at the same time glucose load (2 g/kg) will be administered per orally. Blood is collected at time points corresponding to 30, 60 and 120 min after glucose load administration. Serum is separated for determination of glucose levels and change in area under curve for glucose and glucose excursion is calculated from Vehicle control with glucose load Vs water control group without glucose load and provided in Table 4 as % reduction in AUC glucose excursion Vs Vehicle control is calculated.
Structure (SMILES),EC50 (human GPR 119 receptor) [nM],Fold increase in cyclic AMP with respective to DMSO (human GPR 119 receptor; 10 nM compound) [fold],Fold increase in cyclic AMP with respective to DMSO (human GPR 119 receptor; 100 nM compound) [fold],Fold increase in cyclic AMP with respective to DMSO (human GPR 119 receptor; 1 uM compound) [fold],% reduction in AUC at 50 mg/kg (C57/BL6 mice) [%],% reduction in AUC at 50 mg/kg (db/db mice) [%]
"CCOC(=O)CN1C(=O)S/C(=C\c2ccc(Oc3ncnc(OC4CCN(C(=O)OC(C)(C)C)CC4)c3C)cc2)C1=O [Example 2, (Z)-tert-Butyl 4-((6-(4-((3-(2-ethoxy-2-oxoethyl)-2,4-dioxothiazolidin-5-ylidene)methyl)phenoxy)-5-methylpyrimidin-4-yl)oxy)piperidine-1-carboxylate]",–,5.90,8.00,12.56,13.0,47.3
"CC(C)(C)OC(=O)N1CCC(Oc2cc(Oc3ccc(/C=C4\SC(=O)NC4=O)cc3)ncn2)CC1 [Example 12, (Z)-tert-Butyl 4-((6-(4-((2,4-dioxothiazolidin-5-ylidene)methyl)phenoxy)pyrimidin-4-yl)oxy)piperidine-1-carboxylate]",130,2.22,4.47,7.00,23.4,66.7

# The next lines start with results.
EC50 (human GPR 119 receptor) [nM],Fold increase in cyclic AMP with respective to DMSO (human GPR 119 receptor; 10 nM compound) [fold],Fold increase in cyclic AMP with respective to DMSO (human GPR 119 receptor; 100 nM compound) [fold],Fold increase in cyclic AMP with respective to DMSO (human GPR 119 receptor; 1 uM compound) [fold],Structure (SMILES),% reduction in AUC at 50 mg/kg (C57/BL6 mice) [%],% reduction in AUC at 50 mg/kg (db/db mice) [%]
88,0.90,2.27,3.96,"Cc1c(Oc2ccc(/C=C3\SC(=O)NC3=O)cc2)ncnc1OC1CCN(C(=O)OC(C)(C)C)CC1 [Example 1, (Z)-tert-Butyl 4-((6-(4-((2,4-dioxothiazolidin-5-ylidene)methy 1)phenoxy)-5-methylpyrimidin-4-yl)oxy)piperidine-1-carboxylate]",35.0,56.2
124,0.79,1.32,2.24,"Cc1c(Oc2ccc(/C=C3\SC(=O)NC3=O)cc2)ncnc1OC1CCN(c2nc(C(C)C)no2)CC1 [Example 7, (Z)-5-(4-((6-((1-(3-iso-Propyl-1,2,4-oxadiazol-5-yl)piperidin-4-yl)oxy)-5-methylpyrimidin-4-yl)oxy)benzylidene)thiazolidine-2,4-dione]",29.0,22.4
43,2.54,4.86,6.57,"Cc1c(Oc2cccc(/C=C3\SC(=O)NC3=O)c2)ncnc1OC1CCN(C(=O)OC(C)(C)C)CC1 [Example 9, (Z)-tert-Butyl 4-((6-(3-((2,4-dioxothiazolidin-5-ylidene)methyl)phenoxy)-5-methylpyrimidin-4-yl)oxy)piperidine-1-carboxylate]",32.4,69.1
